How the values were obtained:
Type in all cases: in vivo
Blattella germanica [1] = assay: Experimental Example 14: topical application, Blattella germanica; details: 1 μl of 1% (w/v) acetone solution onto sternum of thorax of female imagoes; after 7 days
Experimental: 1% (w/v) solutions of the present compounds (4), (20), (22), (23), (24), (29), (30), (31), (35), (36), (37), (38), (46), (53), (54), (56), (57), (59), (61), (66), (67), (68), (69), (70), (71), (79), (81), (83), (84), (89), and (90) in acetone were prepared. Onto the sternum of the thorax of female imagoes of Blattella germanica, 1 μl of the acetone solution was added dropwise. The imagoes were transferred to a plastic cup having a diameter of about 9 cm and a height of about 4.5 cm and left together with feed and water at 25° C. After 7 days, the number of surviving Blattella germanica was examined and the death rate of the pest was calculated. 10 imagoes of Blattella germanica were put in a cup and three replicate experiments were performed.

Blattalla germanica = assay: Experimental Example 3: treated filter paper with sucrose bait, German cockroach; details: 500 ppm, 0.7 ml on filter paper; two male imagoes; after 6 days
Experimental: A filter paper having a diameter of 5.5 cm was spread on the bottom of a polyethylene cup having a diameter of 5.5 cm and 0.7 ml of the experimental pesticidal solution was added dropwise onto the filter paper. As a bait 30 mg of sucrose was uniformly placed on the filter paper. Into the polyethylene cup, two male Blattalla germanica imagoes were released and the cup was sealed with a lid. After 6 days, the number of surviving Blattalla germanica was examined and the death rate of the pest was calculated.

Periplaneta fuliginosa = assay: Experimental Example 16: treated filter paper in paper box, Periplaneta fuliginosa; details: 0.1 ml of 5% (w/v) acetone solution on filter paper in paper box; after 7 days
Experimental: (§1) 5% (w/v) solutions of the present compounds (23), (24) and (31) in acetone were prepared. 0.1 ml of the solution was added dropwise onto a filter paper with 2 cm×2 cm and then air-dried. This filter paper was attached to the center of the inside bottom of a paper box having 10 cm (width)×2 cm (height)×7 cm (depth) with a two-sided tape. One hole of 2 mm in width and 2 cm in height was made through one side of this box. This box was placed in a plastic vat with 25 cm×20 cm×8 cm in height and therein 3 females and 3 males of Periplaneta fuliginosa were released. The inside wall of the plastic vat used in this experiment was coated with talc for preventing the escape of cockroaches. The plastic vat contained feed and water and left at 25° C. After 7 days, Periplaneta fuliginosa was observed and the death rate of the pest was calculated. This experiment was repeated two times.

Blattella germanica [2] = assay: Experimental Example 15: treated filter paper in paper box, Blattella germanica; details: 0.1 ml of 2.5% (w/v) acetone solution on filter paper in paper box; after 7 days
Experimental: as §1, with “2.5% (w/v)” for “5% (w/v)”, “of 5” for “of 2”, “therein 10” for “therein 3”, “and 10” for “and 3”, “of Blattella germanica” for “of Periplaneta fuliginosa”, “days, Blattella germanica” for “days, Periplaneta fuliginosa”

Structure (SMILES) | death rate of the pest (Blattella germanica [1]) | death rate of the pest (Blattalla germanica) | death rate of the pest (Periplaneta fuliginosa) | death rate of the pest (Blattella germanica [2])
N#CC(C#N)(CCCC(F)(F)F)CC(F)(F)C(F)(F)C(F)(F)C(F)F [(66)] | 100% | 100% | – | –
N#CC(C#N)(CC(Br)C(F)(F)F)CC(F)(F)C(F)(F)C(F)(F)C(F)F (stereo not shown) [(57)] | 100% | – | – | –
N#CC(C#N)(CCC(F)(F)F)CCC(F)(F)C(F)(F)C(F)(F)C(F)(F)F [(38)] | 100% | 100% | – | –
N#CC(C#N)(CCC(F)(F)F)CC(F)(F)C(F)F [(20)] | 100% | 100% | – | –
C#CCC(C#N)(C#N)CCC(F)(F)F [(27)] | – | 100% | – | –
N#CC(C#N)(CCCCCF)CCC(F)(F)F [(55)] | – | 100% | – | –
N#CC(C#N)(CCC1CCC(F)(F)C1)CCC(F)(F)F (stereo not shown) [(84)] | 100% | – | – | –
C=CCC(C#N)(C#N)CC(F)(F)C(F)(F)C(F)(F)C(F)F [(47)] | – | 100% | – | –
N#CC(C#N)(CCCF)CC(F)(F)C(F)(F)C(F)(F)C(F)F [(74)] | – | 100% | – | –
N#CC(C#N)(CCC(F)=C(F)F)CCC(F)(F)F [(17)] | – | 100% | – | –
N#CC(C#N)(CCCCC(F)F)CCC(F)(F)F [(60)] | – | 100% | – | –
CC(F)(F)CCC(C#N)(C#N)CC(F)(F)C(F)(F)C(F)(F)C(F)F [(59)] | 100% | 100% | – | –
N#CC(C#N)(CCC(F)(F)F)CC(F)(F)F [(21)] | – | 100% | – | –
N#CC(C#N)(CCC(F)(F)F)CCC(F)(F)C(F)(F)Br [(35)] | 100% | 100% | – | –
CCCC(C#N)(C#N)CC(F)(F)C(F)(F)C(F)(F)C(F)F [(82)] | – | 100% | – | –
CCCCCC(C#N)(C#N)CCC(F)(F)F [(9)] | – | 100% | – | –
CCCCCCC(C#N)(C#N)CCC(F)(F)F [(10)] | – | 100% | – | –
N#CC(C#N)(CCC(F)=C(F)F)CC(F)(F)C(F)(F)C(F)(F)C(F)F [(75)] | – | 100% | – | –
CCC(F)(F)CCC(C#N)(C#N)CCC(F)(F)F [(70)] | 100% | – | – | –

Structure (SMILES) | death rate of the pest (Blattella germanica [1]) | death rate of the pest (Blattalla germanica) | death rate of the pest (Periplaneta fuliginosa) | death rate of the pest (Blattella germanica [2])
N#CC(C#N)(CC(Cl)C(F)(F)F)CC(F)(F)C(F)(F)C(F)(F)C(F)F (stereo not shown) [(69)] | 100% | 100% | – | –
N#CC(C#N)(CCC(F)(F)F)CC(F)(F)C(F)(F)C(F)(F)C(F)(F)C(F)(F)C(F)F [(32)] | – | 100% | – | –
N#CC(C#N)(CCC(F)(F)F)CCC(F)(F)C(F)(F)F [(29)] | 100% | 100% | – | –
N#CC(C#N)(CC(F)(F)C(F)C(F)(F)F)CC(F)(F)C(F)(F)C(F)(F)C(F)F (stereo not shown) [(81)] | 100% | 100% | – | –
N#CC(C#N)(CCC(F)(F)F)CCC(F)(C(F)(F)F)C(F)(F)F [(36)] | 100% | 100% | – | –
N#CC(C#N)(CCC(F)(F)F)CCC(F)(F)C(F)(F)C(F)(F)F [(37)] | 100% | 100% | – | –
N#CC(C#N)(CCC(F)(F)F)C[C@H]1CCC[C@@H](CF)C1 [(88)] | – | 100% | – | –
N#CC(C#N)(CCCCCl)CCC(F)(F)F [(3)] | – | 100% | – | –
N#CC(C#N)(CCC(F)(F)C(F)(F)C(F)(F)F)CC(F)(F)C(F)(F)C(F)(F)C(F)F [(71)] | 100% | 100% | – | –
N#CC(C#N)(CC(F)(F)C(F)F)CC(F)(F)C(F)(F)C(F)(F)C(F)F [(61)] | 100% | 100% | – | –
N#CC(C#N)(CCC(F)(F)F)CC(F)(F)C(F)(F)C(F)(F)F [(24)] | 100% | 100% | 100% | 100%
CC(F)(F)CCCC(C#N)(C#N)CCC(F)(F)F [(90)] | 100% | – | – | –
N#CC(C#N)(CCC(F)(F)F)CC1CC1(Cl)Cl (stereo not shown) [(4)] | 100% | 100% | – | –
N#CC(C#N)(CC(F)(F)C(F)(F)C(F)(F)F)CC(F)(F)C(F)(F)C(F)(F)C(F)F [(79)] | 100% | 100% | – | –
N#CC(C#N)(CCC(F)(F)F)CC(F)(F)C(F)(F)F [(22)] | 100% | 100% | – | –
N#CC(C#N)(CCC(F)(F)F)C[C@H]1CCC[C@@H](C(F)F)C1 [(87)] | – | 100% | – | –
N#CC(C#N)(CCCC(F)(F)C(F)(F)F)CCC(F)(F)F [(89)] | 100% | 100% | – | –
N#CC(C#N)(CCC(F)(F)F)CC1CCC(F)(F)CC1 [(83)] | 100% | 100% | – | –
N#CC(C#N)(CCC(F)(F)F)CC(F)(F)C(F)C(F)(F)F (stereo not shown) [(23)] | 100% | 100% | 91.7% | 97.5%

Structure (SMILES) | death rate of the pest (Blattella germanica [1]) | death rate of the pest (Blattalla germanica) | death rate of the pest (Periplaneta fuliginosa) | death rate of the pest (Blattella germanica [2])
CC(C)=CCC(C#N)(C#N)CC(F)(F)C(F)(F)C(F)(F)C(F)F [(78)] | – | 100% | – | –
N#CC(C#N)(CC(F)(F)C(F)(F)F)CC(F)(F)C(F)(F)F [(93)] | – | 100% | – | –
N#CC(C#N)(CCC(F)(F)F)CCC(F)(Cl)C(F)(F)Br (stereo not shown) [(30)] | 100% | 100% | – | –
N#CC(C#N)(CCC(F)(C(F)(F)F)C(F)(F)F)CCC(F)(C(F)(F)F)C(F)(F)F [(56)] | 100% | 100% | – | –
N#CC(C#N)(CCC(F)(F)F)CCC(F)(Cl)C(F)(F)Cl (stereo not shown) [(54)] | 100% | 100% | – | –
N#CC(C#N)(CC(F)(F)C(F)F)CC(F)(F)C(F)F [(50)] | – | 100% | – | –
N#CC(C#N)(CCC(F)(F)F)CCC(F)(F)F [(5)] | – | 100% | – | –
N#CC(C#N)(CCC(F)(Cl)C(F)(F)Br)CC(F)(F)C(F)C(F)(F)F (stereo not shown) [(46)] | 100% | 100% | – | –
N#CC(C#N)(CBr)CCC(F)(F)F [(52)] | – | 100% | – | –
CCCCC(C#N)(C#N)CC(F)(F)C(F)(F)C(F)(F)C(F)F [(80)] | – | 100% | – | –
N#CC(C#N)(CCCC(F)(F)F)CCC(F)(F)F [(48)] | – | 100% | – | –
N#CC(C#N)(CCC(F)(Cl)C(F)(F)Cl)CC(F)(F)C(F)(F)C(F)(F)C(F)F (stereo not shown) [(67)] | 100% | 100% | – | –
N#CC(C#N)(CCC(F)(F)C(F)(F)F)CC(F)(F)C(F)(F)C(F)(F)C(F)F [(68)] | 100% | 100% | – | –
CC(F)(F)CCC(C#N)(C#N)CCC(F)(F)F [(64)] | – | 100% | – | –
N#CC(C#N)(CCF)CCC(F)(F)F [(25)] | – | 100% | – | –
C=CCCC(C#N)(C#N)CC(F)(F)C(F)(F)C(F)(F)C(F)F [(73)] | – | 100% | – | –
N#CC(C#N)(CCC(F)(F)F)CC(Cl)C(F)(F)F (stereo not shown) [(58)] | – | 100% | – | –
N#CC(C#N)(CC1CC1)CC(F)(F)C(F)(F)C(F)(F)C(F)F [(72)] | – | 100% | – | –

Source: patent US20070112068A1, “Nitrile compound and its use in pest control” (priority 2003, published 2007)
